Measured values as given in patent US20250280861A1, “SWEETENER COMPOSITIONS” (Firmenich Incorporated, priority 2022, published 2025).

Target: T1, hT1R2/T1R3 taste receptor (Homo sapiens, UniProt Q7RTX0+Q8TE23)
T1 sequence (Q8TE23 20-839): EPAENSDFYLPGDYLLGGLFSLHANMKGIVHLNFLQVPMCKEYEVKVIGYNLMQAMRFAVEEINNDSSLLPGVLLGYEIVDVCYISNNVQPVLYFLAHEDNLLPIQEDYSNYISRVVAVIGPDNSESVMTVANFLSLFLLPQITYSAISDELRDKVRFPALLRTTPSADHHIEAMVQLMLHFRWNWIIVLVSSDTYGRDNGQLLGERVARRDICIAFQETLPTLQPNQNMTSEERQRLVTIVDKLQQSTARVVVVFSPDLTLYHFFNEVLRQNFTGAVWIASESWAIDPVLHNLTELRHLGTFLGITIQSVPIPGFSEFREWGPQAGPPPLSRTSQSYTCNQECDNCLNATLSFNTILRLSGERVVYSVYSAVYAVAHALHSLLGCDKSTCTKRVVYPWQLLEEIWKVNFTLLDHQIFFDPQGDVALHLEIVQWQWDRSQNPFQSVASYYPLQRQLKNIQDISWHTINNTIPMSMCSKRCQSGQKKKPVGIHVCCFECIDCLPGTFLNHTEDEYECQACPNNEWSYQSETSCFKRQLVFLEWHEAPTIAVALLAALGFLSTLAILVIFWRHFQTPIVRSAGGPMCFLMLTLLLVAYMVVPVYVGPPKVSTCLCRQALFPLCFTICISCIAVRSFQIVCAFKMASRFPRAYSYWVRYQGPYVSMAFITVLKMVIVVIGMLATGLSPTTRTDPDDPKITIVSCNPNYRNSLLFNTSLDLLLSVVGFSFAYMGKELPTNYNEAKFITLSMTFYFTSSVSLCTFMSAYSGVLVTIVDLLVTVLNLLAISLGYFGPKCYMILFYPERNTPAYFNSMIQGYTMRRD
T1 sequence (Q7RTX0 21-852): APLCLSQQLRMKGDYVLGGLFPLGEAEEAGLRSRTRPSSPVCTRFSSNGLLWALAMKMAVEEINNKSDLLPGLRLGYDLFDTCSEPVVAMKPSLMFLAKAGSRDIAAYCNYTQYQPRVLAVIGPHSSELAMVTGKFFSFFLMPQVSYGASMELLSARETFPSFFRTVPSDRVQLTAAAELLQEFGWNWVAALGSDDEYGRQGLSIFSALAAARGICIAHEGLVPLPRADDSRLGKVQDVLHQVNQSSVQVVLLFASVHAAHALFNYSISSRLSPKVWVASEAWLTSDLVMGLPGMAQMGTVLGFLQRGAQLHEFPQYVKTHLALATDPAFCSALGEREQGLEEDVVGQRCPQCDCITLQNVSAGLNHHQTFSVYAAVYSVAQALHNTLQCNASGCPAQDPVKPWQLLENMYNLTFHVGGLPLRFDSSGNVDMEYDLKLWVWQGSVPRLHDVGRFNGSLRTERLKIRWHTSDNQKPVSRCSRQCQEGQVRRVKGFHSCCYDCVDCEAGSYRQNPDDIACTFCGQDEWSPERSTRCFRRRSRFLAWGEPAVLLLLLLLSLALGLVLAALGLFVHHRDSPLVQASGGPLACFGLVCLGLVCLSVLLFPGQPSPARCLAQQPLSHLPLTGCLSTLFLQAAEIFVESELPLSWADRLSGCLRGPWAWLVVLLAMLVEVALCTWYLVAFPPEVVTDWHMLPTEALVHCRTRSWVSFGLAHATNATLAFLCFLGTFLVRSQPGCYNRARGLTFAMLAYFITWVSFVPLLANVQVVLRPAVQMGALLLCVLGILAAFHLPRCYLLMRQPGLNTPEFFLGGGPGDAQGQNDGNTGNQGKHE
Experiment: agonist activity against the hT1R2/T1R3 taste receptor (sweet receptor based assay)
Assay type: cell-based
Settings: agonist activity, hT1R2/T1R3; read-out: Sweet EC50
Method: Compounds described in this application show moderate to potent agonist effect on the sweet receptor based assay. Potencies (EC50 values, e.g. see Tables 1-3) for agonist activity were measured against the hT1R2/T1R3 taste receptor. FIG. 1 exemplifies the data generated during the screening to determine EC50 values.

Structure (SMILES) | EC50
Cc1cccc(N2CCN(C(C)(C)C(=O)NCC(C)(C)O)CC2)c1C [Compound 25] | > 10 µM
Cc1cccc(N2CCN(C(C)(C)C(=O)NCCc3ccccc3)CC2)c1C [Compound 27] | > 10 µM
Cc1cccc(N2CCN(CC(=O)NC3CC3)CC2)c1C [Compound 31] | > 10 µM
Cc1cccc(N2CCN(C(C)C(=O)NC3CC3)CC2)c1C (stereo not shown) [Compound 32] | > 10 µM
CC(C)CNC(=O)C(C)(C)N1CCN(c2ccccc2)CC1 [Compound 34] | > 10 µM
CC(C)CNC(=O)C(C)(C)N1CCN(c2cccc(CO)c2F)CC1 [Compound 35] | > 10 µM
CC(C)CNC(=O)C(C)(C)N1CCN(c2ccc(F)cc2F)CC1 [Compound 37] | > 10 µM
Cc1ccc(C)c(N2CCN(C(C)(C)C(=O)NCC(C)C)CC2)c1 [Compound 38] | > 10 µM
CC(C)CNC(=O)C(C)(C)N1CCN(c2cc(F)ccc2F)CC1 [Compound 39] | > 10 µM
Cc1cccc(C)c1N1CCN(C(C)(C)C(=O)NCC(C)C)CC1 [Compound 40] | > 10 µM
Cc1cccnc1N1CCN(C(C)(C)C(=O)NCC(C)C)CC1 [Compound 41] | > 10 µM
CC(C)CNC(=O)C(C)(C)N1CCN(c2c(F)cccc2F)CC1 [Compound 42] | > 10 µM
Cc1cccc(N2CCN(C(C)(C)C(=O)NCC(C)C)CC2)c1 [Compound 43] | > 10 µM
CC(C)CNC(=O)C(C)(C)N1CCN(c2cccc(F)c2)CC1 [Compound 44] | > 10 µM
COCc1cccc(N2CCN(C(C)(C)C(=O)NCC(C)C)CC2)c1 [Compound 45] | > 10 µM
CC(C)CNC(=O)C(C)(C)N1CCN(c2ccccc2C#N)CC1 [Compound 48] | > 10 µM

Structure (SMILES) | EC50
COC(=O)c1ccccc1N1CCN(C(C)(C)C(=O)NCC(C)C)CC1 [Compound 49] | > 10 µM
CC(C)CNC(=O)C(C)(C)N1CCN(c2ccccc2C(F)(F)F)CC1 [Compound 50] | > 10 µM
CC(C)CNC(=O)C(C)(C)N1CCN(c2cccc(F)c2CO)CC1 [Compound 51, 2-(4-(3-fluoro-2-(hydroxymethyl)phenyl)piperazin-1-yl)-N-isobutyl-2-methylpropanamide] | > 10 µM
COc1ccccc1N1CCN(C(C)(C)C(=O)NCC(C)C)CC1 [Compound 52] | > 10 µM
CC(C)CNC(=O)C(C)(C)N1CCN(c2ccccn2)CC1 [Compound 53] | > 10 µM
CC(C)CNC(=O)C(C)(C)N1CCN(c2cnccn2)CC1 [Compound 54] | > 10 µM
COCc1cccc(C2=CCN(C(COC)C(=O)NCC(C)C)CC2)c1F (stereo not shown) [Compound 55, 2-(4-(2-fluoro-3-(methoxymethyl)phenyl)-3,6-dihydropyridin-1(2H)-yl)-N-isobutyl-3-methoxypropanamide] | 1.4 µM
CC(C)CNC(=O)C(C)(C)N1CC=C(c2ccccc2)CC1 [Compound 56] | 3.3 µM
CC(C)CNC(=O)C(C)(C)N1CC=C(c2ccccc2F)CC1 [Compound 57] | 1.6 µM
Cc1ccccc1C1=CCN(C(C)(C)C(=O)NCC(C)C)CC1 [Compound 58] | 5.4 µM
CC(C)CNC(=O)C(C)(C)N1CC=C(c2cccc(F)c2F)CC1 [Compound 59] | 1.7 µM
COCc1cccc(C2=CCN(C(C)(C)C(=O)NCC(C)C)CC2)c1F [Compound 60] | 1.2 µM
COCc1c(F)cccc1C1=CCN(C(C)(C)C(=O)NCC(C)C)CC1 [Compound 61] | 6.5 µM
CC(C)CNC(=O)C(C)(C)N1CC=C(c2cccc(F)c2)CC1 [Compound 62] | 3 µM
COCc1cccc(C2=CCN(C(C)(C)C(=O)NCC(C)C)CC2)c1 [Compound 63] | > 10 µM

The remaining lines, values ahead:

EC50 | Structure (SMILES)
4.3 µM | Cc1cccc(N2CCN(C(C)(C)C(=O)NC3CC3)CC2)c1C [Compound 1, N-cyclopropyl-2-(4-(2,3-dimethylphenyl)piperazin-1-yl)-2-methylpropanamide]
6.8 µM | CC(C)CNC(=O)C(C)(C)N1CCN(c2ccccc2F)CC1 [Compound 2, 2-(4-(2-fluorophenyl)piperazin-1-yl)-N-isobutyl-2-methylpropanamide]
1.6 µM | CC(C)CNC(=O)C(C)(C)N1CCN(c2cccc(F)c2F)CC1 [Compound 3, 2-(4-(2,3-difluorophenyl)piperazin-1-yl)-N-isobutyl-2-methylpropanamide]
2.1 µM | COCc1cccc(N2CCN(C(C)(C)C(=O)NCC(C)C)CC2)c1F [Compound 4, 2-(4-(2-fluoro-3-(methoxymethyl)phenyl)piperazin-1-yl)-N-isobutyl-2-methylpropanamide]
2.1 µM | COCc1c(F)cccc1N1CCN(C(C)(C)C(=O)NCC(C)C)CC1 [Compound 5, 2-(4-(3-fluoro-2-(methoxymethyl)phenyl)piperazin-1-yl)-N-isobutyl-2-methylpropanamide]
> 10 µM | CC(C)CNC(=O)C(C)(C)N1CCN(c2ccccc2CO)CC1 [Compound 6]
11.5 µM | COC(=O)c1c(F)cccc1N1CCN(C(C)(C)C(=O)NCC(C)C)CC1 [Compound 7, Methyl 2-fluoro-6-(4-(1-(isobutylamino)-2-methyl-1-oxopropan-2-yl)piperazin-1-yl)benzoate]
> 10 µM | CCNC(=O)C(C)(C)N1CCN(c2cccc(C)c2C)CC1 [Compound 8]
4.2 µM | CCCNC(=O)C(C)(C)N1CCN(c2cccc(C)c2C)CC1 [Compound 9]
2.8 µM | Cc1cccc(N2CCN(C(C)(C)C(=O)NCC(C)C)CC2)c1C [Compound 10]
1.4 µM | Cc1cccc(N2CCN(C(C)C(=O)NCC(C)C)CC2)c1C (stereo not shown) [Compound 11]
9.7 µM | Cc1cccc(N2CCN(CC(=O)NCC(C)C)CC2)c1C [Compound 12]
9.4 µM | Cc1cccc(N2CCN(C(C)(C)C(=O)NC3CCCCC3)CC2)c1C [Compound 13]
5 µM | Cc1cccc(N2CCN(C(C)(C)C(=O)NCC3CC3)CC2)c1C [Compound 14]
6.9 µM | Cc1cccc(N2CCN(C(C)(C)C(=O)NCC3CCCC3)CC2)c1C [Compound 15]
> 10 µM | Cc1cccc(N2CCN(C(C)(C)C(=O)NCC3CCCCC3)CC2)c1C [Compound 16]
> 10 µM | Cc1cccc(N2CCN(C(C)(C)C(=O)NCC3CCCCCC3)CC2)c1C [Compound 17]
> 10 µM | Cc1cccc(N2CCN(C(C)(C)C(=O)NCC(C)(C)C)CC2)c1C [Compound 18]
> 10 µM | CCC(C)(C)NC(=O)C(C)(C)N1CCN(c2cccc(C)c2C)CC1 [Compound 19]
5.6 µM | CCC(CC)NC(=O)C(C)(C)N1CCN(c2cccc(C)c2C)CC1 [Compound 20]
> 10 µM | CCC(CC)CNC(=O)C(C)(C)N1CCN(c2cccc(C)c2C)CC1 [Compound 21]
> 10 µM | COCCNC(=O)C(C)(C)N1CCN(c2cccc(C)c2C)CC1 [Compound 22]
> 10 µM | Cc1cccc(N2CCN(C(C)(C)C(=O)NCCN(C)C)CC2)c1C [Compound 23]
> 10 µM | Cc1cccc(N2CCN(C(C)(C)C(=O)NC(C)(C)CO)CC2)c1C [Compound 24]
8 µM | Cc1cccc(N2CCN(C(C)(C)C(=O)NCCC(C)C)CC2)c1C [Compound 26]
1.4 µM | Cc1cccc(N2CCN(C(C)C(=O)NCC(C)C)CC2)c1C (stereo not shown) [Compound 29]
3.9 µM | CC(C)(C(=O)NC1CC1)N1CCN(c2cccc(F)c2F)CC1 [Compound 33]
2.4 µM | Cc1cccc(N2CCN(C(C)(C)C(=O)NCC(C)C)CC2)c1F [Compound 36]
4.3 µM | Cc1ccccc1N1CCN(C(C)(C)C(=O)NCC(C)C)CC1 [Compound 46]
6.8 µM | COCc1ccccc1N1CCN(C(C)(C)C(=O)NCC(C)C)CC1 [Compound 47]
